Key:
Assay in all cases: relative viability (nuclei count vs DMSO), 5 days (fraction); higher = more cells survive
QS11 + Pemetrexed = compound: C1CC2=C(C1)C=C(C=C2)OC3=NC(=C4C(=N3)N(C=N4)CC5=CC=C(C=C5)C6=CC=CC=C6)N[C@@H](CC7=CC=CC=C7)CO [QS11] + Nc1nc2[nH]cc(CCc3ccc(C(=O)N[C@@H](CCC(=O)O)C(=O)O)cc3)c2c(=O)[nH]1 [Pemetrexed] (partner 0.2 µM)
In short: (§1)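 Lung cancer cell lines in 1536-well plates got either a single drug or a fixed anchor-drug dose together with five library-drug doses (not always all listed) in √10 steps, by pin tool, on the day after seeding. Nuclei were counted after 5 days, and relative viability is the treated-to-vehicle ratio of nuclei counts. Values are medians of duplicate plates.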

AZ628 + Foretinib = compound: CC1=C(C=C(C=C1)NC(=O)C2=CC(=CC=C2)C(C)(C)C#N)NC3=CC4=C(C=C3)N=CN(C4=O)C [AZ628] + COc1cc2c(Oc3ccc(NC(=O)C4(C(=O)Nc5ccc(F)cc5)CC4)cc3F)ccnc2cc1OCCCN1CCOCC1 [Foretinib] (partner 0.25 µM)
In short: as §1

AZ628 + Pictilisib = compound: CC1=C(C=C(C=C1)NC(=O)C2=CC(=CC=C2)C(C)(C)C#N)NC3=CC4=C(C=C3)N=CN(C4=O)C [AZ628] + CS(=O)(=O)N1CCN(Cc2cc3nc(-c4cccc5[nH]ncc45)nc(N4CCOCC4)c3s2)CC1 [Pictilisib] (partner 1 µM)
In short: as §1

Darinaparsin + Alpelisib = compound: C[As](C)SC[C@H](NC(=O)CC[C@H](N)C(=O)O)C(=O)NCC(=O)O [Darinaparsin] + Cc1nc(NC(=O)N2CCC[C@H]2C(N)=O)sc1-c1ccnc(C(C)(C)C(F)(F)F)c1 [Alpelisib] (partner 2 µM)
In short: as §1

| Cell Line | relative viability (QS11 + Pemetrexed; first compound 0.08 µM) | relative viability (QS11 + Pemetrexed; first compound 0.253 µM) | relative viability (QS11 + Pemetrexed; first compound 0.8 µM) | relative viability (QS11 + Pemetrexed; first compound 2.53 µM) | relative viability (QS11 + Pemetrexed; first compound 8 µM) | relative viability (AZ628 + Foretinib; first compound 0.08 µM) | relative viability (AZ628 + Foretinib; first compound 0.253 µM) | relative viability (AZ628 + Foretinib; first compound 0.8 µM) | relative viability (AZ628 + Foretinib; first compound 2.53 µM) | relative viability (AZ628 + Foretinib; first compound 8 µM) | relative viability (AZ628 + Pictilisib; first compound 0.08 µM) | relative viability (AZ628 + Pictilisib; first compound 0.253 µM) | relative viability (AZ628 + Pictilisib; first compound 0.8 µM) | relative viability (AZ628 + Pictilisib; first compound 2.53 µM) | relative viability (AZ628 + Pictilisib; first compound 8 µM) | relative viability (Darinaparsin + Alpelisib; first compound 0.08 µM) | relative viability (Darinaparsin + Alpelisib; first compound 0.8 µM) | relative viability (Darinaparsin + Alpelisib; first compound 2.53 µM) | relative viability (Darinaparsin + Alpelisib; first compound 8 µM) |
| --- | --- | --- | --- | --- | --- | --- | --- | --- | --- | --- | --- | --- | --- | --- | --- | --- | --- | --- | --- |
| NCI-H838 | 0.245 | 0.237 | 0.236 | 0.237 | 0.24 | 0.931 | 1 | 1.06 | 0.914 | 0.871 | 0.523 | 0.559 | 0.356 | 0.403 | 0.365 | 1.18 | 1 | 0.846 | 1.14 |
| NCI-H1355 | 1.03 | 0.993 | 0.782 | 1.08 | 1.02 | 0.976 | 0.937 | 1.03 | 1.02 | 0.871 | 0.454 | 0.395 | 0.404 | 0.34 | 0.285 | 0.955 | 0.8 | 0.785 | 0.92 |
| NCI-H1395 | 0.84 | 0.911 | 1.09 | 0.917 | 1.16 | 0.996 | 0.967 | 0.974 | 1 | 0.939 | 0.645 | 0.621 | 0.618 | 0.629 | 0.662 | 1.17 | 0.912 | 0.909 | 0.945 |
| NCI-H1437 | 0.314 | 0.331 | 0.301 | 0.286 | 0.271 | 1.26 | 1.13 | 1.25 | 1.28 | 1.23 | 0.505 | 0.476 | 0.526 | 0.532 | 0.483 | 1.17 | 0.942 | 0.92 | 1.16 |
| NCI-H1563 | 0.806 | 0.838 | 0.722 | 0.881 | 0.886 | 0.957 | 0.997 | 0.944 | 0.963 | 0.953 | 0.613 | 0.667 | 0.657 | 0.658 | 0.616 | 0.903 | 0.91 | 1.01 | 0.894 |
| NCI-H1651 | 0.575 | 0.616 | 0.582 | 0.598 | 0.584 | 0.887 | 0.867 | 0.885 | 0.774 | 0.856 | 0.698 | 0.685 | 0.587 | 0.537 | 0.599 | 1.11 | 0.994 | 0.931 | 1.27 |
| NCI-H1666 | 0.834 | 0.937 | 0.824 | 0.739 | 0.651 | 0.894 | 0.769 | 0.749 | 0.756 | 0.893 | 0.404 | 0.296 | 0.339 | 0.362 | 0.313 | 1.11 | 0.967 | 1.14 | 1.06 |
| NCI-H1734 | 0.374 | 0.393 | 0.393 | 0.472 | 0.424 | 0.667 | 0.759 | 0.686 | 0.753 | 0.416 | 0.432 | 0.359 | 0.351 | 0.367 | 0.306 | 0.829 | 0.67 | 0.669 | 0.766 |
| NCI-H1755 | 0.554 | 0.443 | 0.39 | 0.446 | 0.355 | 0.905 | 0.929 | 0.858 | 0.965 | 0.867 | 0.378 | 0.346 | 0.29 | 0.275 | 0.203 | 1.26 | 0.896 | 0.892 | 1.28 |
| NCI-H1793 | 0.725 | 0.777 | 1.11 | 1.1 | 0.85 | 0.669 | 0.83 | 0.787 | 0.487 | 0.384 | 0.345 | 0.202 | 0.32 | 0.275 | 0.196 | 0.716 | 0.935 | 0.643 | 0.958 |
| NCI-H1915 | 0.583 | 0.538 | – | 0.567 | 0.529 | 1.23 | 1.1 | 0.987 | 0.89 | 0.59 | 0.822 | 0.67 | 0.693 | 0.493 | 0.313 | 1.12 | 1.06 | 1.03 | 1.11 |
| NCI-H1944 | 0.535 | 0.632 | – | 0.491 | 0.565 | 0.943 | 0.842 | 0.69 | 0.757 | 0.604 | 0.359 | 0.321 | 0.322 | 0.29 | 0.321 | 0.946 | 0.912 | 0.823 | 0.905 |
| NCI-H1975 | 0.302 | 0.279 | 0.332 | 0.326 | 0.307 | 0.905 | 0.922 | 0.872 | 0.918 | 0.582 | 0.309 | 0.285 | 0.29 | 0.277 | 0.206 | 0.758 | 0.777 | 0.483 | 0.704 |
| NCI-H1993 | 0.649 | 0.503 | 0.618 | 0.573 | 0.618 | 1.05 | 0.68 | 0.714 | 0.715 | 0.667 | 0.784 | 0.829 | 0.705 | 0.769 | 0.726 | 0.712 | 0.681 | 0.688 | 0.678 |
| NCI-H2009 | 1.08 | 1.06 | 1.01 | 0.978 | 0.985 | 1.02 | 0.861 | 0.704 | 0.573 | 0.355 | 0.512 | 0.311 | 0.291 | 0.277 | 0.226 | 1.25 | 1.19 | 1.06 | 1.16 |

From the supplement of paper PMC10307832
